Data taken from patent US9155317B2, “Antifungal compositions” (DSM IP ASSETS B.V., priority 2011, dated 2015).

Tests used:
Fusarium proliferatum [1] = test: In vitro antifungal activity, 96-well microtiter plates; assay type: cell-based; settings: 5 days at 25° C.
Experimental: (§1) Subsequently, 100 μl of a Botrytis cinerea suspension prepared in PCB medium was used to inoculated each well with 2.5×10^3 spores/ml.
(§2) After incubation of the microtiter plates for 5 days at 25° C., the in vitro antifungal activity (%) of the individual active ingredients was assessed by calculating the reduction in mould growth observed in the presence of the active ingredient in comparison to the mould growth observed in the absence of the active ingredient. The expected antifungal activity (E in %) of the active ingredient combination was calculated according to the Colby equation (Colby, 1967): E=X+Y−[(X·Y)/100] wherein X and Y are the observed antifungal activities (in %) of the individual active ingredients X and Y, respectively. If the observed antifungal activity (O in %) of the combination exceeds the expected antifungal activity (E in %) of the combination and the resulting synergy factor O/E is thus >1.0, the combined application of the active ingredients leads to a synergistic antifungal effect.
The experiment was conducted as described in Example 11, except for the fact that the following compositions were tested:
Furthermore, Fusarium proliferatum was used for inoculation.

Penicillium italicum = test: Treatment of wounded, inoculated mandarins (mould growth); assay type: in vivo; settings: 20° C.
Experimental: Ten fresh, organic mandarins were used per treatment. The peel of each mandarin was wounded once using a cork borer according to the method described by de Lapeyre de Bellaire and Dubois (1987). Subsequently, each wound was inoculated with 10 μl of a Penicillium italicum suspension containing 1×10^4 of spores/ml.
The treated mandarins were incubated in a closed box in the dark at 20° C. and assessed on mould growth after 16, 19, 22 and 26 days of incubation. […] The expected antifungal activity (E in %) of the combined antifungal composition comprising both active ingredients was calculated according to the Colby equation (Colby, 1967): E=X+Y−[(X·Y)/100] wherein X and Y are the observed antifungal activities (in %) of the individual active ingredients X and Y, respectively. If the observed antifungal activity (O in %) of the combination exceeds the expected antifungal activity (E in %) of the combination and the synergy factor O/E is thus >1.0, the combined application of the active ingredients leads to a synergistic antifungal effect.

Botrytis cinerea [2] = test: In vitro antifungal activity, 96-well microtiter plates; assay type: cell-based; settings: 5 days at 25° C., alone or combined with natamycin
Experimental: The following compositions were tested:
as §1, §2

Fusarium proliferatum [3] = test: Treatment of wounded, inoculated bananas (mould growth); assay type: in vivo; settings: 20° C.
Experimental: Four organic, unripe (green) bananas were used per treatment. The peel of each banana was wounded thrice using a cork borer according to the method described by de Lapeyre de Bellaire and Dubois (1987). Subsequently, each wound was inoculated with 15 μl of a Fusarium proliferatum suspension containing 1×10^5 of spores/ml. […] In addition, the antifungal compositions comprised 1.00% (w/w) methylhydroxyethylcellulose (MHEC), 0.40% (w/w) xanthan gum, 0.20% (w/w) anti-foaming agent, 0.30% (w/w) citric acid, 0.39% (w/w) lactic acid and 0.11% (w/w) potassium sorbate. […] The treated, unripe bananas were incubated in a closed box in the dark at 20° C. and a relative air humidity of 95%, which was obtained in the presence of a saturated Na2HPO4 aqueous solution. During the first 20 days of incubation, a ripe (yellow) banana was included in the closed box to elevate the ethylene gas level and thus induce ripening of the treated, unripe bananas.
The expected antifungal activity (E in %) of the combined antifungal composition comprising both active ingredients was calculated according to the Colby equation (Colby, 1967): E=X+Y−[(X·Y)/100] wherein X and Y are the observed antifungal activities (in %) of the individual active ingredients X and Y, respectively. If the observed antifungal activity (0 in %) of the combination exceeds the expected antifungal activity (E in %) of the combination and the synergy factor O/E is thus >1.0, the combined application of the active ingredients leads to a synergistic antifungal effect.
The degree of mould growth on the banana wounds was assessed according to the two methods described in Example 3.

Botrytis cinerea [4] = test: Treatment of wounded, inoculated strawberries (mould growth); assay type: in vivo; settings: 20° C., 250 ppm natamycin, 500 ppm pyrimethanil or both
Experimental: Twelve fresh, organic strawberries were used per treatment. Each strawberry was wounded with a 0.5 mm long cut and each wound was inoculated with 10 μl of a Botrytis cinerea suspension containing 1×10^5 of spores/ml. […] The antifungal composition also comprised 1.00% (w/w) methylhydroxyethylcellulose (MHEC), 0.40% (w/w) xanthan gum, 0.20% (w/w) anti-foaming agent, 0.30% (w/w) citric acid, 0.39% (w/w) lactic acid and 0.11% (w/w) potassium sorbate. A composition without natamycin or pyrimethanil was used as control.
The treated strawberries were incubated for three days in a closed box in the dark at 20° C. and assessed daily on mould growth. The antifungal activity (in %) of the individual active ingredients was determined by calculating the reduction in mould growth observed on the strawberries treated with the antifungal composition in comparison to the mould growth on the strawberries treated with the control composition. The expected antifungal activity (E in %) of the combined antifungal composition comprising both active ingredients was calculated according to the Colby equation (Colby, 1967): E=X+Y−[(X·Y)/100] wherein X and Y are the observed antifungal activities (in %) of the individual active ingredients X and Y, respectively. If the observed antifungal activity (O in %) of the combination exceeds the expected antifungal activity (E in %) of the combination and the synergy factor O/E is thus >1.0, the combined application of the active ingredients leads to a synergistic antifungal effect.

[5] = natamycin 1.25 ppm, cyprodinil 10 ppm, pyrimethanil 17.5 ppm
[6] = natamycin […], cyprodinil 20 ppm, pyrimethanil 30 ppm
[7] = 250 ppm natamycin, 500 ppm cyprodinil or both, 21 days
[8] = 500 ppm natamycin, 1000 ppm cyprodinil or both, 27 days
[9] = 500 ppm natamycin, 1000 ppm pyrimethanil or both, 22 days
[10] = 500 ppm natamycin, 1000 ppm pyrimethanil or both, 26 days
[11] = 250 ppm natamycin, 500 ppm pyrimethanil or both, 23 days
[12] = 250 ppm natamycin, 500 ppm pyrimethanil or both, 29 days

Cc1cc(C2CC2)nc(Nc2ccccc2)n1 [Cyprodinil, cyprodinil] was tested, and the “Observed antifungal activity O (%)” value (Fusarium proliferatum [1]; natamycin 1.25 ppm, cyprodinil 125 ppm or both) was 0%, the “Observed antifungal activity O (%)” value (Penicillium italicum; 250 ppm natamycin, 500 ppm cyprodinil or both, 16 days) was 60% and the “Observed antifungal activity O (%)” value (Penicillium italicum; 250 ppm natamycin, 500 ppm cyprodinil or both, 19 days) was 38%. For the same compound, the “Observed antifungal activity O (%)” value (Penicillium italicum; 250 ppm natamycin, 500 ppm cyprodinil or both, 22 days) was 20%, the “Observed antifungal activity O (%)” value (Penicillium italicum; 250 ppm natamycin, 500 ppm cyprodinil or both, 26 days) was 13% and the “Observed antifungal activity O (%)” value (Botrytis cinerea [2]; [5]) was 0%. The “Observed antifungal activity O (%)” value (Botrytis cinerea [2]; [6]) was 0%, the “Observed antifungal activity O (%)” value (Fusarium proliferatum [3]; 50 ppm natamycin, 250 ppm cyprodinil or both, 23 days) was 0% and the “Observed antifungal activity O (%)” value (Fusarium proliferatum [3]; 50 ppm natamycin, 250 ppm cyprodinil or both, 29 days) was 0%. For the same compound, the “Observed antifungal activity O (%)” value (Fusarium proliferatum [3]; 50 ppm natamycin, 250 ppm cyprodinil or both, 32 days) was 0%, the “Observed antifungal activity O (%)” value (Fusarium proliferatum [3]; 50 ppm natamycin, 250 ppm cyprodinil or both, 36 days) was 0% and the “Number of moulded wounds/total number of 12 wounds” value (Fusarium proliferatum [3]; 250 ppm natamycin, 500 ppm cyprodinil or both, 18 days) was 12/12. For the same compound, the “Number of moulded wounds/total number of 12 wounds” value (Fusarium proliferatum [3]; 250 ppm natamycin, 500 ppm cyprodinil or both, 18 days, listed as cyprodinil) was 12, the “Number of moulded wounds/total number of 12 wounds” value (Fusarium proliferatum [3]; [7]) was 12/12 and the “Observed antifungal activity O (%)” value (Fusarium proliferatum [3]; [7]) was 35%. The “Number of moulded wounds/total number of 12 wounds” value (Fusarium proliferatum [3]; 250 ppm natamycin, 500 ppm cyprodinil or both, 21 days, listed as cyprodinil) was 12, the “Observed antifungal activity O (%)” value (Fusarium proliferatum [3]; 250 ppm natamycin, 500 ppm cyprodinil or both, 32 days) was 3% and the “Observed antifungal activity O (%)” value (Fusarium proliferatum [3]; 250 ppm natamycin, 500 ppm cyprodinil or both, 34 days) was 0%. For the same compound, the “Number of moulded wounds/total number of 12 wounds” value (Fusarium proliferatum [3]; 500 ppm natamycin, 1000 ppm cyprodinil or both, 23 days) was 12/12, the “Number of moulded wounds/total number of 12 wounds” value (Fusarium proliferatum [3]; 500 ppm natamycin, 1000 ppm cyprodinil or both, 23 days, listed as cyprodinil) was 12 and the “Number of moulded wounds/total number of 12 wounds” value (Fusarium proliferatum [3]; [8]) was 12/12. For the same compound, the “Observed antifungal activity O (%)” value (Fusarium proliferatum [3]; [8]) was 18%, the “Number of moulded wounds/total number of 12 wounds” value (Fusarium proliferatum [3]; 500 ppm natamycin, 1000 ppm cyprodinil or both, 27 days, listed as cyprodinil) was 12 and the “Observed antifungal activity O (%)” value (Fusarium proliferatum [3]; 500 ppm natamycin, 1000 ppm cyprodinil or both, 39 days) was 0%.

C[C@@H]1C/C=C/C=C/C=C/C=C/[C@H](O[C@@H]2O[C@H](C)[C@@H](O)[C@H](N)[C@@H]2O)C[C@@H]2O[C@](O)(C[C@@H](O)C[C@H]3O[C@@H]3/C=C/C(=O)O1)C[C@H](O)[C@H]2C(=O)O [Natamycin, natamycin] was tested, and the “Observed antifungal activity O (%)” value (Penicillium italicum; [9]) was 37%, the “Observed antifungal activity O (%)” value (Penicillium italicum; [10]) was 30% and the “Observed antifungal activity O (%)” value (Botrytis cinerea [4]; 1 day) was 25%. The “Observed antifungal activity O (%)” value (Botrytis cinerea [4]; 2 days) was 31%, the “Observed antifungal activity O (%)” value (Botrytis cinerea [4]; 3 days) was 24% and the “Observed antifungal activity O (%)” value (Fusarium proliferatum [3]; [11]) was 19%. For the same compound, the “Observed antifungal activity O (%)” value (Fusarium proliferatum [3]; [12]) was 9%.

In the case of Cc1cc(C)nc(Nc2ccccc2)n1 [Pyrimethanil, pyrimethanil], the “Observed antifungal activity O (%)” value (Fusarium proliferatum [1]; natamycin 2.5 ppm, pyrimethanil 275 ppm or both) is reported as 0%, the “Observed antifungal activity O (%)” value (Penicillium italicum; 250 ppm natamycin, 500 ppm pyrimethanil or both, 19 days) is reported as 84% and the “Observed antifungal activity O (%)” value (Penicillium italicum; 250 ppm natamycin, 500 ppm pyrimethanil or both, 22 days) is reported as 74%. For the same compound, the “Observed antifungal activity O (%)” value (Penicillium italicum; 250 ppm natamycin, 500 ppm pyrimethanil or both, 26 days) was 65%, the “Observed antifungal activity O (%)” value (Penicillium italicum; [9]) was 82% and the “Observed antifungal activity O (%)” value (Penicillium italicum; [10]) was 79%. For the same compound, the “Observed antifungal activity O (%)” value (Botrytis cinerea [4]; 1 day) was 0%, the “Observed antifungal activity O (%)” value (Botrytis cinerea [4]; 2 days) was 0% and the “Observed antifungal activity O (%)” value (Botrytis cinerea [4]; 3 days) was 0%. The “Observed antifungal activity O (%)” value (Botrytis cinerea [2]; [5]) was 50%, the “Observed antifungal activity O (%)” value (Botrytis cinerea [2]; [6]) was 50% and the “Observed antifungal activity O (%)” value (Fusarium proliferatum [3]; [11]) was 0%. The “Observed antifungal activity O (%)” value (Fusarium proliferatum [3]; [12]) was 0%, the “Observed antifungal activity O (%)” value (Fusarium proliferatum [3]; 250 ppm natamycin, 500 ppm pyrimethanil or both, 32 days) was 0% and the “Observed antifungal activity O (%)” value (Fusarium proliferatum [3]; 250 ppm natamycin, 500 ppm pyrimethanil or both, 34 days) was 0%.
